Entries after “also recorded” stand apart in the source; their conditions may differ.
Experiments:
MMP-2 [1] = assay: Gelatin zymography of conditioned media from human cancer cell lines (gelatinase activity); type: cell-based; settings: for reduction of activated MMP-2: 20 μM compound 1
Description: (§1) Conditioned media for zymogram and Western blot analysis were produced under serum-free conditions. Cells (2 million) were plated in 25 cm^2 flasks in serum-containing medium and cultured overnight. Serum-containingmedium was removed and the cell monolayers were washed twice with DMEM/ITS (DMEM containing insulin (5 μg/mL), transferrin (5 μg/mL), and selenium (5 ng/mL)). The resultant cells were fed with 3 mL of DMEM/ITS and additives as described in the Examples for two 24 hour periods. Conditioned media samples were collected at 24 hours and cells were refed with fresh DMEM/ITS containing the described additives for an additional 24 hours. Conditioned media samples were centrifuged to remove cells and debris then frozen at -20° C. until use. Freeze and thaw cycles of the conditioned media were limited to no more than two.
Quantitation of the effect was evaluated by laser densitometry of the resultant zymograms.
Aliquots of conditioned medium (15 μL) were electrophoresed on gelatin-containing 10% PAGE gels under nonreducing but denaturing conditions. These conditions allow the different gelatin-degrading species (MMPs) to separate by size. […] Bands of clearing, seen after Coomassie blue staining correspond to areas of gelatinase activity.
OVCAR3 conditioned media samples were concentrated 10-fold prior to zymography.
Known concentrated conditioned medium from HT1080 cells was used for identification of the gelatinase species as marked in FIG. 1A: 92 kDa, gelatinase B/MMP-9; 72 kDa, gelatinase A/MMP-2 latent form; 65 kDa intermediate and 62 kDa activated forms of MMP-2. The activated form of MMP-2 results from cleavage of the amino terminal domain.
Lane 1 corresponds to cells treated only with 0.05% DMSO as a control.
Quantitation of the zymograms in FIGS. 1A-1C were carded out using laser densitometry.
The effect of structural analogs on the gelatinase activity of A2058 cells was similarly evaluated.

MMP-9 = assay: Gelatin zymography of HT1080 cells, compound 1 with or without TGF-β1 (densitometry), 92 kDa; type: cell-based, human; settings: control band = 100%
Description: as §1
A2058 human melanoma cells, human HT1080 fibrosarcoma cells, and OVCAR3 human ovarian cancer cells were incubated with increasing concentrations of compound 1 (0.2-20 μM) or DMSO control (0.05%) and subjected to gelatin zymography. Aliquots of conditioned medium (15 μL) were electrophoresed on gelatin-containing 10% PAGE gels under nonreducing but denaturing conditions. These conditions allow the different gelatin-degrading species (MMPs) to separate by size. The enzymes renature after removal of the SDS by incubation of the gel with 2.5 % Triton X-100, and degrade the gelatin substrate present in the polyacrylamide gel upon overnight incubation in low salt collagenase buffer. Bands of clearing, seen after Coomassie blue staining correspond to areas of gelatinase activity.
(§2) A2058 and HT1080 cells were incubated with compound 1 (2 μM), with or without TGF-β1 (5 ng/mL) for 24 and 48 hours prior to harvest of conditioned media. Aliquots were subjected to gelatin zymography as described in Example 1. Known concentrated conditioned medium from HT1080 cells was used for identification of the gelatinase species (92 kDa, gelatinase B/MMP-9; 72 kDa, gelatinase A/MMP-2 latent form; 65 kDa intermediate and 62 kDa activated forms of MMP-2).
(§3) Lane 1 is the control resulting from treatment of the cells with 0.1% DMSO. Lanes 2 and 3 correspond to those cells which are treated with 2 μM compound 1 in the absence of TGF-β1 for 24 and 48 hours, respectively. Lane 4 corresponds to cells which have been treated with TGF-β1 in the absence of compound 1. Lane 5 corresponds to cells which have been treated with TGF-β1 for 48 hours with compound 1 being added to the incubation mixture for the final 24 hours. Lane 6 corresponds to cells which have been treated for 48 hours with both TGF-β1 and compound 1.
*The control band was defined as 100% gelatinase activity and the other
bands were normalized to it. Numbers reflect triplicate measurements from
each zymogram band of representative zymograms. Standard deviations, not

MMP-2 [2] = assay: Western immunoblot of conditioned media from compound 1 and TGF-β1 treated cells; type: cell-based, human; settings: HT1080 and A2058; 2 μM, 24 and 48 hr
Description: A2058 and HT1080 conditioned media samples were concentrated 10-fold using ultrafiltration units excluding material of less than 10 or 30 kDa in molecular weight. Aliquots of 15 μL were electrophoresed on 4-20% gradient PAGE gels, electrically transferred to membranes and immunoblotted with specific polyclonal antibody to proMMP-2. This antibody, made to the MMP-2/TIMP-2 complex recognizes the latent and activated MMP-2 species and crossreacts with TIMP-2 (21 kDa).
as §2
as §3, with “Lane 6 corresponds to cells which have been treated for 48 hours with both TGF-β1 and compound 1.” left out

MMP-2 [3] = assay: Northern blot of MMP-2 mRNA from A2058 cells; type: cell-based, human; settings: 2 μM; for inhibition in MMP-2 transcription: corrected for loading (GAPDH)
Description: This example illustrates the effect of compound 1 on MMP-1 and MMP-2 mRNA from A2058 cells using Northern blot analysis.
Total cytoplasmic RNA was purified from A2058 cells using cesium chloride density centrifugation. Cells were treated with DMSO vehicle (0.05 %) or compound 1 (2 μM) for 24 or 48 hr. Total RNA yields from treated and control cells (μg/10^6 cells) were similar. Aliquots (5 μg) of total RNA were denatured and separated on formaldehyde-1% agarose slab gels, passively transferred to GeneScreen, and crosslinked using ultraviolet light exposure. RNA was hybridized in buffer (50% deionized formamide, 5x SSC, 10 mM Tris HCl pH 7.5, 1x Denharts solution without albumin, 1.0% SDS, and 0.125 mg/mL salmon sperm DNA) containing 10^6 counts/mL of ^32 P- labeled probe of either MMP-2, MMP-1, or with GAPDH which was used as a measure of RNA load. Probes were labeled to high specific activity with ^32 P-dCTP using a random primer labeling protocol. The cDNA probes for the MMP-2, MMP-1, and GAPDH have been described. See, Brown, et al., Cancer Res. 50:6184-6191 (1990); Templeton, et at., Cancer Res. 50:5431-5437 (1990); and Fort, et al., Nucleic Acids Res. 13:1431-1441 (1985). Radiolabeled bands were quantitated using laser densitometric analysis of autoradiography bands. Numeric data are presented as percent inhibition of IVase or interstitial collagenase expression corrected for loading using GAPDH.

gelatinase activity = assay: Gelatin zymography of A2058 and HT1080 cells, compound 1 with or without TGF-β1 (results in words); type: cell-based, human
Description: as §2, §3

[4] = test system: receptor-operated and voltage-gated calcium influx; settings: cited from earlier work

With `NC(=O)c1nnn(Cc2cc(Cl)c(C(=O)c3ccc(Cl)cc3)c(Cl)c2)c1N` [Compound 1, 5-amino-l-(4-(4-chlorobenzoyl)-3,5-dichlorobenzyl)-1,2,3-triazole-4-carboxamide] as the compound, how does the MMP-2 activity (MMP-2 [1]; A2058, 10 μM (FIG. 1E)) read?
Its MMP-2 activity is “reduced MMP-2 activity”.

And the “reduction of activated MMP-2” value (MMP-2 [1]; A2058)?
Its value is “almost complete reduction”.

And the “reduction of activated MMP-2” value (MMP-2 [1]; HT1080)?
The value was 75%.

And the “shift of MMP species” value (MMP-2 [1]; HT1080 cell line)?
The value was “shift to activated species with subsequent decrease in total activity”.

And the “reduction of activated MMP-2” value (MMP-2 [1]; OVCAR3)?
Its value is “almost complete reduction”.

And the “reduction in activity of all MMP-2 species” value (MMP-2 [1]; all cell lines (HT1080, A2058, OVCAR3), normalized to DMSO control)?
Its value is “greater than 80%”.

What about the “reduction of MMP activity” value (MMP-2 [1]; three human cancer cell lines, 0.2-20 μM) of the same compound?
The value was “dose dependent reduction of MMP activity”.

What about the “inhibition of MMP-2 gelatinase activity (FIG. 1)” value (MMP-2 [1]; zymograms of FIG. 1) of the same compound?
The value was “dose-dependent inhibition”.

And the “gelatinase activity, 92 kDa” value (MMP-9; with TGF-β, 2 μM compound 1, 24 hr)?
The value was 78%.

And the “gelatinase activity, 92 kDa” value (MMP-9; with TGF-β, 2 μM compound 1, 48 hr)?
Its value is 14%.

And the “gelatinase activity, 92 kDa” value (MMP-9; without TGF-β, 2 μM compound 1, 24 hr)?
The value was 73%.

And the “gelatinase activity, 92 kDa” value (MMP-9; without TGF-β, 2 μM compound 1, 48 hr)?
The value was 12%.

What about the “inhibition of MMP-2 (immunoblot)” value (MMP-2 [2]) of the same compound?
The value was “inhibits MMP-2 in a time-dependent manner”.

And the “expression of type IV collagenase/gelatinase A MMP-2” value (MMP-2 [3])?
The value was “inhibits the expression”.

What about the “inhibition in MMP-2 transcription” value (MMP-2 [3]; 24 hr) of the same compound?
Its value is “greater than 50%”.

What about the “inhibition in MMP-2 transcription” value (MMP-2 [3]; 48 hr) of the same compound?
Its value is “greater than 50%”.

What about the “reduction of gelatinase activity” value (gelatinase activity; A2058 and HT1080, 2 μM, 24 and 48 hr, no TGF-β1) of the same compound?
The value was “increased from 24 to 48 hr exposure”.

And the “effect on TGF-β1-increased gelatinase activity” value (gelatinase activity; TGF-β1 48 hr, compound 1 over the final 24 hr)?
Its value is “little effect”.

What about the “effect on TGF-β1-increased gelatinase activity” value (gelatinase activity; TGF-β1 with compound 1 co-incubation for 48 hr) of the same compound?
Its value is “inhibited”.

What about the calcium influx inhibition [4] of the same compound?
Its calcium influx inhibition is “inhibits receptor-operated and voltage-gated calcium influx; also recorded: inhibit receptor-stimulated and voltage-gatedcalcium entry across cell membranes”.

Source: US5602156A, “Method for inhibiting metalloproteinase expression” (The United States of America as represented by the …, priority 1994, dated 1997)
